Values of other authors in patent EP3888461A1, “NON-AQUEOUS DISPERSIONS COMPRISING INHIBITORS OF HYDROXYPHENYLPYRUVATE-DIOXYGENASE AND CITRIC ACID” (Bayer AG, priority 2020, dated 2021).

conditions: commercially available brands of surfactants of structure (II)

Substance | Log P
Polyoxyethylene (16) sorbitan monolaurate [Tween® 24] | 0.26
Tween® 20 | -0.55
Tween® 21 | 2.71
Tween® 40 | 1.47
Tween® 60 | 2.48
Tween® 80 | 1.99
